{"source": "patent US8129532B2", "about": "“Amino(oligo)thiophene dyes, preparation thereof, and optical methods of use” (The University of Connecticut, priority 2007, dated 2012)", "system": "NIE-115 mouse neuroblastoma", "test": "SHG and 2PF voltage sensitivity, 50 mV step, slow switching protocol on patch-clamped neuroblastoma cell", "format": "cell-based", "conditions": "comparator named in the sentence (PY-1266; PY-1268)", "source_text": "For full details of our non-linear imaging microscope, we refer the reader to previously published descriptions. A. C. Millard, P. J. Campagnola, W. Mohler, A. Lewis, and L. M. Loew, “Second Harmonic Imaging Microscopy,” Meth. Enzymol. 361, 47-69 (2003); Millard, A. C., L. Jin, and L. M. Loew, “Second Harmonic Generation Imaging Microscopy with a High Power Ultrafast Fiber Laser,”Commercial and Biomedical Applications of Ultrafast Lasers. 5714-5716, 92-98 (2005); A. C. Millard, L. Jin, M.-D. Wei, J. P. Wuskell, A. Lewis, and L. M. Loew, “Sensitivity of Second Harmonic Generation from Styryl Dyes to Transmembrane Potential,” Biophys. J. 86, 1169-1176 (2004). Our current microscope combines a Fluoview (Olympus) scan-head and an Axiovert (Zeiss) inverted microscope constructed for multiple imaging methodologies including wide-field, one-photon excitation fluorescence imaging, as well as SHG and 2PF imaging. Our laser sources include a Mira (Coherent) Ti:sapphire laser and a Femtopower (Fianium) fiber laser operating at 1064 nm. […] Fluorescence is imaged (for linear imaging) or collected (for non-linear imaging) back through the excitation objective, while SHG is collected in the forward, transmitted light direction by a condenser, either 0.8 NA or 0.55 NA (Zeiss). […]"}
{"smiles": "CCN(CC)c1ccc(-c2ccc(/C=C/c3cc[n+](CCC[N+](CC)(CC)CC)cc3)s2)s1", "note": "[PY-1261, Di-2-BTEPPTEA]", "values": [{"measurement": "SHG signal sensitivity relative to another dye", "result": "more than five times larger"}]}
